Consider one compound from patent US7981939B2, “Application of 2-bromide-isovanillin for the manufacture of a medicament for anti-cancer or/and radiation/chemotherapy sensitization” (Institute of Radiation Medicine, Academy of Military …, priority 2005, dated 2011).

The test system of test [1] is lung cancer cell line A549. The test is described as follows: Clonogenic assay, 6 days of continuous action, A549. Format: cell-based. Here is the method:
(§1) Human cervical cancer cell line HeLa, human liver cancer cell line HepG2/7221/7402, human ovarian cancer cell line HOC8/A2780, human glioma cell line BT325, lung cancer cell line A549, brain metastatic lung cancer cell line BT72 and normal human hepatic cell line LO2 were all grown in DMEM liquid medium supplemented with 10% newborn calf serum. Human leukemia cell line Jurkat was grown in 1640 medium supplemented with 10% newborn calf serum. The above cell lines were cultured in a CO2 incubator at 5% CO2 at 37° C.
(§2) By way of example, human cervical cancer cell line HeLa, lung cancer cell line A549, and ovarian cancer cell lines A2780 and HOC8 were used to determine the killing of cancer cells by 2-bromo-isovanillin for 6 days. Specifically, four groups were formed according to the type of the cancer cells. The cancer cells were diluted as appropriate, and were respectively plated into Petri dishes with a diameter of […], the amount of the cells adjusted depending on the concentration of 2-bromo-isovanillin to be added. Once adherence was achieved, each cell type received dosages of 0, 5, 10, 15, 20, 25, 30 and 35 μmol/L in triplicates. After 6 days of continuous action, the medium was replaced by a drug-free DMEM liquid medium. […] Then the cell clones were counted. The experimental data were expressed as the mean of 2-4 experiments and were plotted as a growth curve of cancer cells.

The test system of test [2] is ovarian cancer cell line HOC8. The test is described as follows: Clonogenic assay, 6 days of continuous action, HOC8. Format: cell-based, human. As for the experimental part: as §1, §2
Test [3] concerns spindle structure in HepG2 cells. The test is described as follows: Spindle structure by immunofluorescent labeling of tubulin, HepG2. Format: cell-based, human. Particulars: HepG2, 40 μmol/L, 24 hrs. The text has this: 3. […] The influence of 2-bromo-isovanillin on the spindle structure in HepG2 cells was further studied by means of in situ immunofluorescence hybridization by immunofluorescent labeling of tubulin. […] The cells with impaired spindle function could not undergo normal division, thereby leading to rapid cell death, i.e., mitotic catastrophe.

Another test relates to c-myc protein. The test is described as follows: c-myc protein expression by Western immunoblotting, HeLa. Format: cell-based, human. Particulars: 40 μmol/L, 0-24 hrs, decrease more remarkable with time. As for the experimental part:
The expression level of c-myc protein in human cervical cancer cell line HeLa treated with 2-bromo-isovanillin was determined by Western immunoblotting. In the Western blotting, the mouse anti-human c-myc protein monoclonal antibody SC-40 (purchased from Santa Cruz) was used as the primary antibody, and the goat anti-mouse antibody IgG-HRP (purchased from Zhongshan Reagent Co.) was used as the secondary antibody. Total proteins from human cervical cancer cells HeLa treated with 40 μmol/L 2-bromo-isovanillin for 0, 4, 8, 12, 24 hrs were extracted according to conventional methods, quantified and subjected to SDS-PAGE electrophoresis, followed by transferring to a membrane and immunoblotting, using β-actin as control.

Consider `COc1ccc(C=O)c(Br)c1O` [2-bromo-isovanillin, 2-bromo-3-hydroxy-4-methoxybenzaldehyde], for which the survival rate result in test [1] (A549, 20 μmol/L) is recorded as “lower than 10%”; in test [2] (HOC8, 20 μmol/L) it was “lower than 10%”. Also, the proliferation entry is listed as “completely inhibited” in test [1] (A549, 30 μmol/L) and “completely inhibited” in test [2] (HOC8, 30 μmol/L). In addition, the “M phase cells with multiple centrosomes or destroyed spindle structure” value in test [3] was “more than 65%”. Moreover, in test [3], the “ratio of cells at mitotic phase” value is listed as “significantly increased”. Also, in the test on c-myc protein, the “expression level of c-myc protein” value is listed as “decreased”.
